# Measured values published in publication PMC9699003, “Arene Variation of Highly Cytotoxic Tridentate Naphthoquinone-Based Ruthenium(II) Complexes and In-Depth In Vitro Studies” (Pharmaceutics, 2022).
# Assays:
# [1] = HPLC-MS stability measurements in PBS; settings: PBS pH 7.4, 20 °C, 40 µM, after 24 h
# Procedure: 4 µL of stock solution was mixed with 990 µL of PBS buffer (pH 7.4) and 6 µL DMSO to obtain a final concentration of 40 µM. After injection, the chromatogram at 225 nm and the corresponding mass spectra (positive mode) were recorded hourly (4 h) and after 24 h at 20 °C. Peak areas were determined by integrating complex signals of the respective chromatogram. The measurements were performed with an HPLC system (Agilent Technologies, […]) equipped with a C18 column (Waters, Atlantis T3 […], 1.0 × 150 mm^2) coupled to an MS (Bruker, amaZon SL, ESI, positive mode) with a flow rate of 0.2 mL/min at 20 °C and a gradient (5–95%) with Milli-Q water/ACN.
# [2] = system: A549 non-small cell lung cancer cells; settings: A549, MTT, 96 h exposure; cited from earlier work
# NQO1 (SW480 cells) = target: T1, NQO1 (SW480 cells) (Homo sapiens, UniProt P15559); experiment: NQO1 activity assay in cell extracts after treatment; type: cell-based; settings: SW480, 24 h treatment
# T1 construct: impact on NQO1 activity in SW480 (left panel) and CH1/PA-1 (right panel) cell extracts after treatment; endogenous in cells; host or cells: SW480 colon carcinoma cells (ATCC)
# Procedure: To determine NQO1 activity, SW480 and CH1/PA-1 cells were seeded into 6-well plates in densities of 2 × 10^5 cells/well in 2 mL supplemented MEM. […] The test substances were dissolved in DMSO/medium. To exclude that assay validity was compromised by the use of DMSO, cells treated with DMSO alone (at concentrations corresponding to those in substance solutions) were measured in parallel. After 24 h drug exposure, the medium was aspirated, and the cells were gently washed twice with PBS. The further steps were performed following the manual instructions of the NQO1 activity assay kit (ab184867, abcam, Cambridge, UK). Protease inhibitor phenylmethylsulfonyl fluoride (PMSF, Merck, Darmstadt, Germany) and phosphatase inhibitor PhosSTOP^TM (Roche, Basel, Switzerland) were applied. For determining the protein concentration, the Micro BCA^TM protein assay (prod # 23235, Thermo Scientific) kit was used. For NQO1 activity determination, 100 µg/mL of total protein was loaded. The development of yellow color was monitored for 5 min in 20-sec intervals with a microplate reader (BioTek ELx808) at 450 nm. The measured data were evaluated according to the instructions of the NQO1 activity assay kit: “NQO1 activity was calculated by subtracting the OD value with Inhibitor from the one without Inhibitor. The activity is expressed as the change in absorbance per minute per amount of sample loaded into the well” [30]. Data are expressed as rates of increase of mean absorbance ± SDs from three independent experiments.
# pUC19 plasmid = system: pUC19 plasmid; parameters: method as in PMID 34115482; settings: cited from earlier work
# [3] = system: CH1/PA-1 ovarian teratocarcinoma cells; settings: CH1/PA-1, MTT, 96 h exposure; cited from earlier work
# SW480 cells = experiment: Cell cycle distribution (PI staining, flow cytometry); type: cell-based, human; settings: SW480, 24 h
# Procedure: (§1) For the flow-cytometric determination of cell cycle distribution, CH1/PA-1 (8 × 10^4 cells/well) and SW480 (1.2 × 10^5 cells/well) cells were seeded into 12-well plates (CytoOne, tissue culture treated) in 1 mL supplemented MEM. In the first 24 h, the cells were allowed to settle and resume exponential growth. […] Gemcitabine (Sigma-Aldrich, 0.01 and 0.05 µM) and etoposide (Sigma-Aldrich, 0.25, 0.5 and 1 µM) were used as positive controls. After removal of the treatment medium, cells were washed with 1 mL PBS and trypsinized. Cells were collected in Eppendorf tubes and centrifuged (300 g, 3 min), and the supernatant was discarded. In the following step, cells were washed with 1 mL PBS and resuspended in 500 µL PI/HFS buffer (0.1% v/v Triton X-100, 0.1% w/v sodium citrate, in PBS) containing 25 µg/mL propidium iodide (PI, 1.0 mg/mL, Sigma-Aldrich). The staining was carried out overnight at 4 °C in the dark, and 200 µL of the cell suspension was loaded into 96-well round bottom plates (Falcon). Samples were measured with a Millipore Guava easyCyte 8HT flow cytometer with GuavaSoft™ software in the InCyte-modus, and 10,000 events/sample were detected. Data were analyzed with FlowJo software v 10.8.1 (Tree Star, Ashland, OR, USA) using Watson algorithm. Percentages of cells in the three cell cycle phases (G1/G0, S and G2/M) were calculated by integrating the resulting histograms of fluorescence signals (Figures S29 and S30). Experiments were repeated at least three times. For statistical evaluation, an unpaired t-test with Welch’s correction was performed by using GraphPad PRISM software.
# CH1/PA-1 cells [4] = experiment: as above; type: cell-based, human; settings: CH1/PA-1, 24 h
# Procedure: as §1
# [5] = system: SW480 colon carcinoma cells; settings: SW480, MTT, 96 h exposure; cited from earlier work
# CH1/PA-1 cells [6] = experiment: DCFH-DA assay (ROS levels); type: cell-based, human; settings: CH1/PA-1, DCFH-DA, up to 2 h
# T1 sequence (P15559 whole entry): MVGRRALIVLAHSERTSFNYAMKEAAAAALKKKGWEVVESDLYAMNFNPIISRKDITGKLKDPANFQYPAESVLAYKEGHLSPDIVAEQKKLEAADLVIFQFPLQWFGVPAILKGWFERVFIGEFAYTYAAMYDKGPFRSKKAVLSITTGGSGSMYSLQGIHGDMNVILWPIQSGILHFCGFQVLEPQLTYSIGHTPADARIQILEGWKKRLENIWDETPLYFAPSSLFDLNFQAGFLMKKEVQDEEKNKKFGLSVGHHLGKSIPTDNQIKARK
smiles,measurement,setting,value
CC1=C([O-])C([O-])(n2cccn2)c2ccccc2C1=O.Cc1ccc(C(C)C)cc1.[Ru+2] (racemic) [Compound 1],Percentage amount of initial complex remaining,[1],more than 70%
same,IC50,[2],1.2 ± 0.2 µM
same,Effect on NQO1 activity (in words),"NQO1 (SW480 cells); 0.1 µM and 1 µM, compared to untreated control",negligible effects
same,Effect on NQO1 activity (in words),NQO1 (SW480 cells); 10 µM,lowered NQO1 activity tremendously
same,Influence on pUC19 (in words),pUC19 plasmid,only a minor influence on pUC19
same,IC50,[3],> 50 µM
same,Cells in G1/G0 phase,SW480 cells; 0.039 µM,23.8 ± 6.1%
same,Cells in G2/M phase,SW480 cells; 0.039 µM,37.2 ± 2.3%
same,Cells in S phase,SW480 cells; 0.039 µM,40.0 ± 2.1%
same,Cells in G1/G0 phase,SW480 cells; 0.078 µM,15.4 ± 1.2%
same,Cells in G2/M phase,SW480 cells; 0.078 µM,34.5 ± 2.1%
same,Cells in S phase,SW480 cells; 0.078 µM,53.4 ± 1.1%
same,Cells in G1/G0 phase,SW480 cells; 0.16 µM,25.0 ± 8.2%
same,Cells in G2/M phase,SW480 cells; 0.16 µM,22.5 ± 4.3%
same,Cells in S phase,SW480 cells; 0.16 µM,56.2 ± 8.4%
same,Cells in G1/G0 phase,CH1/PA-1 cells [4]; 50 µM,18.7 ± 1.7%
same,Cells in G2/M phase,CH1/PA-1 cells [4]; 50 µM,48.2 ± 5.5%
same,Cells in S phase,CH1/PA-1 cells [4]; 50 µM,39.2 ± 8.7%
same,Cells in G1/G0 phase,CH1/PA-1 cells [4]; 100 µM,19.8 ± 2.1%
same,Cells in G2/M phase,CH1/PA-1 cells [4]; 100 µM,40.9 ± 4.0%
same,Cells in S phase,CH1/PA-1 cells [4]; 100 µM,45.8 ± 3.8%
same,Cells in G1/G0 phase,CH1/PA-1 cells [4]; 150 µM,20.0 ± 1.3%
same,Cells in G2/M phase,CH1/PA-1 cells [4]; 150 µM,31.0 ± 3.2%
same,Cells in S phase,CH1/PA-1 cells [4]; 150 µM,52.9 ± 1.9%
same,Increase of S phase fraction relative to untreated control,CH1/PA-1 cells [4]; concentration-dependent,up to 11%
same,IC50,[5],0.094 ± 0.031 µM
same,"ROS level, T/C (treated vs negative control)",CH1/PA-1 cells [6],≈ 0.5
"CC1=C(O)C(=O)c2ccccc2C1=O [L, 2-Hydroxy-3-methyl-1,4-naphthoquinone]",IC50,[2],210 ± 32 µM
same,Effect on NQO1 activity (in words),NQO1 (SW480 cells); 10 µM,moderately inhibited
same,Influence on pUC19 (in words),pUC19 plasmid,only a minor influence on pUC19
same,IC50,[3],129 ± 29 µM
same,Cells in G1/G0 phase,SW480 cells; 50 µM,47.4 ± 2.0%
same,Cells in G2/M phase,SW480 cells; 50 µM,14.5 ± 0.5%
same,Cells in S phase,SW480 cells; 50 µM,38.8 ± 1.7%
same,Cells in G1/G0 phase,SW480 cells; 100 µM,51.5 ± 5.0%
same,Cells in G2/M phase,SW480 cells; 100 µM,12.1 ± 0.4%
same,Cells in S phase,SW480 cells; 100 µM,35.9 ± 3.4%
same,Cells in G1/G0 phase,SW480 cells; 150 µM,52.0 ± 2.9%
same,Cells in G2/M phase,SW480 cells; 150 µM,11.3 ± 0.5%
same,Cells in S phase,SW480 cells; 150 µM,36.3 ± 2.2%
same,Cell cycle perturbation (in words),SW480 cells; tested concentrations,did not show any cell cycle perturbation
same,Cells in G1/G0 phase,CH1/PA-1 cells [4]; 100 µM,37.0 ± 0.3%
same,Cells in G2/M phase,CH1/PA-1 cells [4]; 100 µM,22.9 ± 2.8%
same,Cells in S phase,CH1/PA-1 cells [4]; 100 µM,41.4 ± 2.4%
same,Cells in G1/G0 phase,CH1/PA-1 cells [4]; 150 µM,40.8 ±1.7%
same,Cells in G2/M phase,CH1/PA-1 cells [4]; 150 µM,19.3 ± 1.9%
same,Cells in S phase,CH1/PA-1 cells [4]; 150 µM,42.1 ± 2.7%
same,Cells in G1/G0 phase,CH1/PA-1 cells [4]; 200 µM,47.2 ± 1.7%
same,Cells in G2/M phase,CH1/PA-1 cells [4]; 200 µM,16.8 ± 8.9%
same,Cells in S phase,CH1/PA-1 cells [4]; 200 µM,37.6 ± 3.5%
same,IC50,[5],116 ± 37 µM
